In ChEMBL document CHEMBL1147793, “Synthesis and biological investigations of dopaminergic partial agonists preferentially recognizing the D4 receptor subtype” (Bioorg Med Chem Lett, 2006) one finds Ki, Efficacy and EC50 data, which are given here for 16 compounds.

In experiment [1] the target is T1, D(3) dopamine receptor (Homo sapiens, UniProt P35462). In words: Displacement of [3H]spiperone from human cloned dopamine D3 receptor expressed in CHO cells. It counts as cell-based.
Experiment [2] concerns the target T2, D(4) dopamine receptor (Homo sapiens, UniProt P21917).
T2 sequence (P21917 whole entry): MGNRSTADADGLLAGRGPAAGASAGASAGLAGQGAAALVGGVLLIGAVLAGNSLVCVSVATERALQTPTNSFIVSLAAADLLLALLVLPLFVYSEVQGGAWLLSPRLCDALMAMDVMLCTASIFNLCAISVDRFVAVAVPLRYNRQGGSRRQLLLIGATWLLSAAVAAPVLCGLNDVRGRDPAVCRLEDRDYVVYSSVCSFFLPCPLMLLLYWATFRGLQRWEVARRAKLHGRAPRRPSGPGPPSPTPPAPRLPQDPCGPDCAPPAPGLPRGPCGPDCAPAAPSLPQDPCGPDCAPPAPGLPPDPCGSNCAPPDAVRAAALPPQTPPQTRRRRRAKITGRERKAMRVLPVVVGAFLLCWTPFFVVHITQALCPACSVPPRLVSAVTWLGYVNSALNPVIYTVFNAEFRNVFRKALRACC
The experiment is described as follows: Displacement of [3H]spiperone from human cloned dopamine D4 receptor expressed in CHO cells. It counts as cell-based.

For experiment [3], the target named is D(1A) dopamine receptor (Sus scrofa, UniProt P50130). The experiment is described as follows: Displacement of [3H]SCH-23390 from dopamine D1 receptor in porcine striatal membrane. It counts as cell membranes, Striatum.
Experiment [4] has as its target T3, D(2) dopamine receptor (Homo sapiens, UniProt P14416). In words: Displacement of [3H]spiperone from human cloned dopamine D2(long) receptor expressed in CHO cells. It counts as cell-based.
The target in experiment [5] is T3, D(2) dopamine receptor. The experiment is described as follows: Displacement of [3H]spiperone from human cloned dopamine D2(short) receptor expressed in CHO cells. It counts as cell-based.
In experiment [6] the target is T3, D(2) dopamine receptor. The experiment is described as follows: Intrinsic activity against dopamine D2(long) receptor expressed in CHO cells relative to quinpirole by GTPgammaS assay. It counts as functional, cell-based.
The target in experiment [7] is T3, D(2) dopamine receptor. The experiment is described as follows: Intrinsic activity against dopamine D2(short) receptor assessed as [3H]thymidine uptake in CHO cells relative to quinpirole by mitogenesis assay. It counts as functional, cell-based.
In experiment [8] the target is T3, D(2) dopamine receptor. The experiment is described as follows: Intrinsic activity against dopamine D2(short) receptor assessed as [3H]thymidine uptake in CHO cells by mitogenesis assay. It counts as functional, cell-based.
Experiment [9] addresses T3, D(2) dopamine receptor. In words: Intrinsic activity against dopamine D2(short) receptor expressed in CHO cells relative to quinpirole by GTPgammaS assay. The experiment is classed as functional, cell-based.
In experiment [10] the target is T3, D(2) dopamine receptor. In words: Intrinsic activity against dopamine D2(short) receptor expressed in CHO cells by GTPgammaS assay. The experiment is classed as functional, cell-based.
Experiment [11] addresses T1, D(3) dopamine receptor. In words: Intrinsic activity against dopamine D3 receptor assessed as [3H]thymidine uptake in CHO cells by mitogenesis assay.
Experiment [12] addresses T2, D(4) dopamine receptor. The experiment is described as follows: Intrinsic activity against dopamine D4 receptor assessed as [3H]thymidine uptake in CHO cells by mitogenesis assay. The experiment is classed as functional, cell-based.
Experiment [13] has as its target T2, D(4) dopamine receptor. In words: Intrinsic activity against dopamine D4 receptor expressed in CHO cells by GTPgammaS assay. It counts as functional, cell-based.
For experiment [14], the target named is 5-hydroxytryptamine receptor 2A (Sus scrofa, UniProt P50129). The experiment is described as follows: Displacement of […] from 5HT2 receptor in porcine striatal membrane. It counts as cell membranes, Striatum.
The target of experiment [15] is T3, D(2) dopamine receptor. The experiment is described as follows: Intrinsic activity against dopamine D2(long) receptor assessed as [3H]thymidine uptake in CHO cells relative to quinpirole by mitogenesis assay. It counts as functional, cell-based.
The target of experiment [16] is T3, D(2) dopamine receptor. The experiment is described as follows: Intrinsic activity against dopamine D2(long) receptor assessed as [3H]thymidine uptake in CHO cells by mitogenesis assay. The experiment is classed as functional, cell-based.
Experiment [17] addresses T3, D(2) dopamine receptor. In words: Intrinsic activity against dopamine D2(long) receptor expressed in CHO cells by GTPgammaS assay. It counts as functional, cell-based.

T3 sequence (P14416 whole entry): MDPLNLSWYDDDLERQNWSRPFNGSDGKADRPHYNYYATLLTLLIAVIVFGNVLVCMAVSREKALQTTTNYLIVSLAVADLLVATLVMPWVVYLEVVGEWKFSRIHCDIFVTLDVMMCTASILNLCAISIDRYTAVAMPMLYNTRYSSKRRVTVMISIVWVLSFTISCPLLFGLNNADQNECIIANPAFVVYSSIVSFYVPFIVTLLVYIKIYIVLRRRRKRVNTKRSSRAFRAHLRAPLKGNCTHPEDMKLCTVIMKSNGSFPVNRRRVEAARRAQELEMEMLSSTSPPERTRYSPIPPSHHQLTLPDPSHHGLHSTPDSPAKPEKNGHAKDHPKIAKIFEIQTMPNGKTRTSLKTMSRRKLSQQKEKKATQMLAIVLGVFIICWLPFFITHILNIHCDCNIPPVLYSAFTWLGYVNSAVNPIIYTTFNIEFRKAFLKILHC
Sequence of D(1A) dopamine receptor (P50130 whole entry): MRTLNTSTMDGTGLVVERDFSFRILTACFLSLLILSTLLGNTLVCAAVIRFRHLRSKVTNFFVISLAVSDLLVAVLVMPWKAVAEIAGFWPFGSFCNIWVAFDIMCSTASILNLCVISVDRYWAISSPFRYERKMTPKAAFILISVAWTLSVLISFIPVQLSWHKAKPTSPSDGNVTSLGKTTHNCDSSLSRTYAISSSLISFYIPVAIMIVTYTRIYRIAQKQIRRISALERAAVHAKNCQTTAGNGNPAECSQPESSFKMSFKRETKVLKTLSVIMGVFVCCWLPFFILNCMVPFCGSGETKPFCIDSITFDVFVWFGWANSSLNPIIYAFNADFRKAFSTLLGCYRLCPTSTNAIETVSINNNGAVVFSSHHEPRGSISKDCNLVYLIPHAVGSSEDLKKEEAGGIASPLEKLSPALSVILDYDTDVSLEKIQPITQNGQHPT
T1 sequence (P35462 whole entry): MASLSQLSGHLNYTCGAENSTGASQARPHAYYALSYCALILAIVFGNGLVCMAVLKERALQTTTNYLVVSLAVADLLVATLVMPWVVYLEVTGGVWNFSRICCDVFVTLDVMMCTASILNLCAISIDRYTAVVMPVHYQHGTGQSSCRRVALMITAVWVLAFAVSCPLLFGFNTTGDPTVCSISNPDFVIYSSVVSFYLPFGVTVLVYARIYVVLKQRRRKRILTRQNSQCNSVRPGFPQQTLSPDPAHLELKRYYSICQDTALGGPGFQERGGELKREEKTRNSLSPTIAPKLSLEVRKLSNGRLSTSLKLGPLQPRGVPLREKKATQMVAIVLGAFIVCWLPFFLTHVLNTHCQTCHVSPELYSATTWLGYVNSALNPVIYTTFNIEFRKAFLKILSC
Sequence of 5-hydroxytryptamine receptor 2A (P50129 whole entry): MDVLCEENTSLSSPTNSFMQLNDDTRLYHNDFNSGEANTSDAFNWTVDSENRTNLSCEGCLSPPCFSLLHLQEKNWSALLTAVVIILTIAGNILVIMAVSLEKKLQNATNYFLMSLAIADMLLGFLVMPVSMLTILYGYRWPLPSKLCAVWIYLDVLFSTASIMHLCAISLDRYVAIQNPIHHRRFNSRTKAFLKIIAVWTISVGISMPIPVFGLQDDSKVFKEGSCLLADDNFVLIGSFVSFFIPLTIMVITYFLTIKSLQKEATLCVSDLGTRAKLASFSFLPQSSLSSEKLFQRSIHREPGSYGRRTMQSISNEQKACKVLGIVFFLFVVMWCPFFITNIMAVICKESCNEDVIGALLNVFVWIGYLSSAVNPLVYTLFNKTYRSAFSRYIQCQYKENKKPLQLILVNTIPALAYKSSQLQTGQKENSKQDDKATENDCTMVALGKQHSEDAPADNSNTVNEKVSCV

In the case of `C1=C(c2ccccc2)CCN(Cc2cn(-c3ccccc3)nn2)C1`, the Ki in experiment [1] is 94 nM; in [2] it was 3.2 nM; in experiment [3], 10000 nM; in [4], 220 nM; in experiment [5] (read-out: Ki), 110 nM.
The corresponding values for `Cc1c(CN2CCN(c3ccccc3)CC2)cnn1-c1ccccc1` are 320 nM, 5.3 nM, 560 nM, 630 nM and 250 nM.
With `C1=C(c2ccccc2)CCN(Cc2cnn(-c3ccccc3)c2)C1`, the Ki was found to be 33 nM in [1]; 0.59 nM in experiment [2]; 3000 nM in experiment [3]; 2100 nM in experiment [14]; 38 nM in experiment [4]; 28 nM in experiment [5] (read-out: Ki). The Efficacy in experiment [6] amounted to 45%; in experiment [7] it was 30%; in experiment [9] it was 17%; in [15], 54%. Moreover, the EC50 in [8] worked out at 1.7 nM; in [10], 32 nM; in [11], 3.3 nM; in experiment [12] it was 5.6 nM; in experiment [13], 9.5 nM; in experiment [16], 3 nM. Also, in experiment [17], the concentration for a half-maximal effect (EC50) is 25 nM.
Consider `COc1ccccc1N1CCN(Cc2cn(-c3ccccc3)nn2)CC1`, for which the Ki in [1] is 340 nM; in experiment [2] it was 2.7 nM; in experiment [3], 27000 nM; in experiment [4], 120 nM; in [5] (read-out: Ki), 65 nM.
The like results for `c1ccc(N2CCN(Cc3cnn(-c4ccccc4)c3)CC2)cc1` were, in that order, 140 nM, 1 nM, 1600 nM, 140 nM and 75 nM.
The corresponding values for `Fc1ccc(N2CCN(Cc3cnn(-c4ccccc4)c3)CC2)cc1` are 540 nM, 2.9 nM, 1900 nM, 450 nM and 400 nM.
For the compound `c1ccc(N2CCN(Cc3cn(-c4ccccc4)nn3)CC2)cc1`, the Ki in experiment [1] was 1200 nM; in experiment [2], 9.9 nM; in experiment [3], 21000 nM; in [4] it was 1500 nM; in experiment [5] (read-out: Ki), 860 nM.
Consider `c1ccc(N2CCN(Cc3ccc(-n4cccn4)cc3)CC2)cc1`, for which the Ki in experiment [1] amounted to 2100 nM; in [2] it was 20 nM; in experiment [3], 7600 nM; in experiment [4], 3000 nM; in [5] (read-out: Ki), 2400 nM.
Consider `COc1ccccc1N1CCN(Cc2cnn(-c3ccccc3)c2)CC1`, for which the Ki in experiment [1] stood at 35 nM; in [2], 0.28 nM; in [3], 1000 nM; in [14], 1300 nM; in [4], 11 nM; in [5] (read-out: Ki) it was 8 nM. For the same compound, the Efficacy in experiment [7] stood at 66%; in experiment [15], 56%. The EC50 in experiment [8] amounted to 0.22 nM; in experiment [11], 0.21 nM; in experiment [12], 0.6 nM; in experiment [16] it was 0.28 nM.
Take `COc1ccccc1N1CCN(Cc2cnn(-c3ccccn3)c2)CC1`: the Ki in [1] was determined as 72 nM; in experiment [2], 0.44 nM; in experiment [3], 1900 nM; in [4] it was 40 nM; in [5] (read-out: Ki) it was 31 nM.
On to `Clc1ccc(N2CCN(Cc3cnn(-c4ccccc4)c3)CC2)cc1`, for which the Ki in experiment [1] stood at 1900 nM; in experiment [2] it was 2.9 nM; in [3] it was 7500 nM; in experiment [4], 2900 nM; in [5], 1900 nM.
With `c1ccc(N2CCN(Cc3cnn(-c4ccccn4)c3)CC2)cc1`, the inhibitory constant (Ki) in experiment [1] turned out to be 160 nM; in experiment [2], 2.6 nM; in experiment [3] it was 1600 nM; in experiment [4], 340 nM; in [5] (read-out: Ki) it was 190 nM.
For the compound `c1ccc(-c2c[nH]c(CN3CCN(c4ccccc4)CC3)c2)cc1`, the Ki was 514 nM in experiment [1] and 2100 nM in experiment [3].
For the compound `Fc1ccccc1N1CCN(Cc2cnn(-c3ccccc3)c2)CC1`, the inhibitory constant (Ki) in experiment [1] was determined as 67 nM; in experiment [2], 0.7 nM; in experiment [3], 680 nM; in [4], 63 nM; in experiment [5] (read-out: Ki), 37 nM.
Take `Cc1nn(-c2ccccc2)cc1CN1CCN(c2ccccc2)CC1`: the Ki in [1] is 360 nM; in experiment [2], 1 nM; in experiment [3] it was 3900 nM; in experiment [4], 71 nM; in experiment [5] (read-out: Ki), 43 nM.
As to `c1ccc(-n2cc(CN3CCN(c4ncccn4)CC3)cn2)cc1`, the Ki in experiment [1] was 2900 nM; in experiment [2] it was 310 nM; in [3], 7100 nM; in experiment [4], 6000 nM; in experiment [5] (read-out: Ki), 14000 nM.
